Test results as given in patent US20260184675A1, “CHIRAL ISOMERIC SULFITE COMPOUND AND APPLICATION THEREOF” (Chengdu Hanova BioSciences Co., Ltd, priority 2024, published 2026).

What was measured:
Assay type in all cases: in vivo
eggs of Aleyrodidae = assay: Effect on hatching of eggs of Aleyrodidae, leaf disc method; details: 10 ppm; for Hatching rate (%), Replicate 1 / Hatching rate (%), Replicate 2 / Hatching rate (%), Replicate 3 / Number of hatched larvae 5 days after insecticide delivery, Replicate 1 / Number of hatched larvae 5 days after insecticide delivery, Replicate 2 / Number of hatched larvae 5 days after insecticide delivery, Replicate 3: Aleyrodidae eggs; for Hatching rate (%), Replicate 1 / Hatching rate (%), Replicate 2 / Hatching rate (%), Replicate 3: 5 days after delivery; for Number of hatched larvae 5 days after insecticide delivery, Replicate 1 / Number of hatched larvae 5 days after insecticide delivery, Replicate 2 / Number of hatched larvae 5 days after insecticide delivery, Replicate 3: leaf disc
Method in brief: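 Leaf discs carrying Aleyrodidae eggs were first examined microscopically to record a baseline egg count. They were then dipped for 10 seconds in compound solution at 10 ppm or in clear water, taken out, and incubated with humidity maintained. Five days after delivery, the number of hatched larvae was recorded to assess hatching inhibition.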

eggs of Thrips = assay: Effect on hatching of eggs of Thrips, leaf disc method; details: 100 ppm; for Hatching rate (%): 5 days after insecticide delivery
Method in brief: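 Egg-bearing Vicia faba leaf discs (diameter 2.0 cm, wetted filter paper beneath) were counted microscopically for baseline eggs. They were then soaked for 10 seconds in water or in test agent at 100 ppm. After moist incubation in lidded dishes, with controlled temperature and humidity and adequate indirect light, hatched larvae were counted five days post-delivery to judge hatching inhibition.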

[1] = tested on: eggs of Tetranychus urticae; assay: Effect on hatching of eggs of Tetranychus urticae, leaf disc method; details: 5 ppm; for Hatching rate (%): 5 days after insecticide delivery
Method in brief: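 This leaf disc test measured inhibition of Tetranychus urticae egg hatching. Eggs laid on Vicia faba discs were counted microscopically, and the discs were soaked for 10 seconds in compound at 5 ppm, with clear water as control. They were incubated under controlled temperature and humidity with strong indirect light, avoiding condensate. Hatched eggs, leaf damage and developmental abnormalities were recorded five days after delivery.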

[2] = tested on: eggs of Spodoptera litura; assay: Effect on hatching of eggs of Spodoptera litura, egg piece soaking; details: 500 ppm; for Hatching rate (%), Replicate 1 / Hatching rate (%), Replicate 2 / Hatching rate (%), Replicate 3 / Number of unhatched larvae 4 days after insecticide delivery, Replicate 1 / Number of unhatched larvae 4 days after insecticide delivery, Replicate 2 / Number of unhatched larvae 4 days after insecticide delivery, Replicate 3: Spodoptera litura eggs; for Hatching rate (%), Replicate 1 / Hatching rate (%), Replicate 2 / Hatching rate (%), Replicate 3: 4 days after delivery; for Number of unhatched larvae 4 days after insecticide delivery, Replicate 1 / Number of unhatched larvae 4 days after insecticide delivery, Replicate 2 / Number of unhatched larvae 4 days after insecticide delivery, Replicate 3: soaked 10 minutes
Method in brief: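 Egg pieces of about 60 eggs were soaked 10 min in test agent at 500 ppm, blotted, then held singly at 24±1 °C, 80±10% RH, 12:12 L:D. Hatched and unhatched eggs were counted on day 4 to give hatching rate and control effect; 3 replicates.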

SMILES: CCC(COc1ccc(Cl)cc1Cl)OS(=O)OCCF (stereo not shown) [Compound 19]
- inhibitory activity on the hatching of eggs of Aleyrodidae (in words) (eggs of Aleyrodidae): strong inhibitory activities
- Hatching rate (%), Replicate 1 (eggs of Aleyrodidae): 0.00%
- Hatching rate (%), Replicate 2 (eggs of Aleyrodidae): 0.00%
- Hatching rate (%), Replicate 3 (eggs of Aleyrodidae): 0.00%
- Number of hatched larvae 5 days after insecticide delivery, Replicate 1 (eggs of Aleyrodidae): 0
- Number of hatched larvae 5 days after insecticide delivery, Replicate 2 (eggs of Aleyrodidae): 0
- Number of hatched larvae 5 days after insecticide delivery, Replicate 3 (eggs of Aleyrodidae): 0
- inhibitory activity on the hatching of eggs of Thrips (in words) (eggs of Thrips): strong inhibitory activities
- Hatching rate (%) (eggs of Thrips; Replicate 1): 0.00%
- Hatching rate (%) (eggs of Thrips; Replicate 2): 0.83%
- Hatching rate (%) (eggs of Thrips; Replicate 3): 0.00%
- Number of hatched larvae 5 days after insecticide delivery (eggs of Thrips; Replicate 1): 0
- Number of hatched larvae 5 days after insecticide delivery (eggs of Thrips; Replicate 2): 1
- Number of hatched larvae 5 days after insecticide delivery (eggs of Thrips; Replicate 3): 0
- inhibitory activity on the hatching of eggs of Tetranychus urticae (in words) [1]: strong inhibitory activities
- Hatching rate (%) ([1]; Replicate 1): 0.00%
- Hatching rate (%) ([1]; Replicate 2): 1.09%
- Number of hatched larvae 5 days after insecticide delivery ([1]; Replicate 1): 0
- Number of hatched larvae 5 days after insecticide delivery ([1]; Replicate 2): 1
- Hatching rate (%), Replicate 1 [2]: 29.41%
- Hatching rate (%), Replicate 2 [2]: 30.16%
- Hatching rate (%), Replicate 3 [2]: 29.82%
- Number of unhatched larvae 4 days after insecticide delivery, Replicate 1 [2]: 36
- Number of unhatched larvae 4 days after insecticide delivery, Replicate 2 [2]: 44
- Number of unhatched larvae 4 days after insecticide delivery, Replicate 3 [2]: 40

SMILES: CC(C)(COS(=O)OCCF)Oc1ccc(Cl)cc1Cl (stereo not shown) [R-10′]
- Hatching rate (%), Replicate 1 (eggs of Aleyrodidae): 9.77%
- Hatching rate (%), Replicate 2 (eggs of Aleyrodidae): 10.23%
- Hatching rate (%), Replicate 3 (eggs of Aleyrodidae): 10.16%
- Number of hatched larvae 5 days after insecticide delivery, Replicate 1 (eggs of Aleyrodidae): 13
- Number of hatched larvae 5 days after insecticide delivery, Replicate 2 (eggs of Aleyrodidae): 9
- Number of hatched larvae 5 days after insecticide delivery, Replicate 3 (eggs of Aleyrodidae): 13
- Hatching rate (%) (eggs of Thrips; Replicate 1): 13.93%
- Hatching rate (%) (eggs of Thrips; Replicate 2): 15.05%
- Hatching rate (%) (eggs of Thrips; Replicate 3): 13.97%
- Number of hatched larvae 5 days after insecticide delivery (eggs of Thrips; Replicate 1): 17
- Number of hatched larvae 5 days after insecticide delivery (eggs of Thrips; Replicate 2): 14
- Number of hatched larvae 5 days after insecticide delivery (eggs of Thrips; Replicate 3): 19
- Hatching rate (%) ([1]; Replicate 1): 17.72%
- Hatching rate (%) ([1]; Replicate 2): 16.67%
- Number of hatched larvae 5 days after insecticide delivery ([1]; Replicate 1): 14
- Number of hatched larvae 5 days after insecticide delivery ([1]; Replicate 2): 16
- Hatching rate (%), Replicate 1 [2]: 61.82%
- Hatching rate (%), Replicate 2 [2]: 62.07%
- Hatching rate (%), Replicate 3 [2]: 63.64%
- Number of unhatched larvae 4 days after insecticide delivery, Replicate 1 [2]: 21
- Number of unhatched larvae 4 days after insecticide delivery, Replicate 2 [2]: 22
- Number of unhatched larvae 4 days after insecticide delivery, Replicate 3 [2]: 24

SMILES: CC(C)(COc1ccc(Cl)cc1Cl)OS(=O)OCCF (stereo not shown) [Compound S-10]
- inhibitory activity on the hatching of eggs of Aleyrodidae (in words) (eggs of Aleyrodidae): strong inhibitory activities
- Hatching rate (%), Replicate 1 (eggs of Aleyrodidae): 0.00%
- Hatching rate (%), Replicate 2 (eggs of Aleyrodidae): 0.00%
- Hatching rate (%), Replicate 3 (eggs of Aleyrodidae): 0.00%
- Number of hatched larvae 5 days after insecticide delivery, Replicate 1 (eggs of Aleyrodidae): 0
- Number of hatched larvae 5 days after insecticide delivery, Replicate 2 (eggs of Aleyrodidae): 0
- Number of hatched larvae 5 days after insecticide delivery, Replicate 3 (eggs of Aleyrodidae): 0
- inhibitory activity on the hatching of eggs of Thrips (in words) (eggs of Thrips): strong inhibitory activities
- Hatching rate (%) (eggs of Thrips; Replicate 1): 0.00%
- Hatching rate (%) (eggs of Thrips; Replicate 2): 0.00%
- Hatching rate (%) (eggs of Thrips; Replicate 3): 0.00%
- Number of hatched larvae 5 days after insecticide delivery (eggs of Thrips; Replicate 1): 0
- Number of hatched larvae 5 days after insecticide delivery (eggs of Thrips; Replicate 2): 0
- Number of hatched larvae 5 days after insecticide delivery (eggs of Thrips; Replicate 3): 0
- inhibitory activity on the hatching of eggs of Tetranychus urticae (in words) [1]: strong inhibitory activities
- Hatching rate (%) ([1]; Replicate 1): 0.00%
- Hatching rate (%) ([1]; Replicate 2): 0.00%
- Number of hatched larvae 5 days after insecticide delivery ([1]; Replicate 1): 0
- Number of hatched larvae 5 days after insecticide delivery ([1]; Replicate 2): 0
- inhibitory activity on the hatching of eggs of Spodoptera litura (in words) [2]: good inhibitory activities
- Hatching rate (%), Replicate 1 [2]: 21.43%
- Hatching rate (%), Replicate 2 [2]: 22.86%
- Hatching rate (%), Replicate 3 [2]: 24.19%
- Number of unhatched larvae 4 days after insecticide delivery, Replicate 1 [2]: 44
- Number of unhatched larvae 4 days after insecticide delivery, Replicate 2 [2]: 54
- Number of unhatched larvae 4 days after insecticide delivery, Replicate 3 [2]: 47
